9 compounds from ChEMBL document CHEMBL5230116, “Recent developments of small molecules with anti-inflammatory activities for the treatment of acute lung injury” (Eur J Med Chem, 2020) can be followed below.

Series [1] addresses T1, 72 kDa type IV collagenase (Homo sapiens, UniProt P08253). The series can be described thus: Inhibition of recombinant human MMP-2 using QF24 as substrate incubated for 3 hrs by spectrofluorometer assay.
A further series addresses Neutrophil collagenase (Homo sapiens, UniProt P22894). Nature of the series: Inhibition of recombinant human MMP-8 using QF24 as substrate incubated for 3 hrs by spectrofluorometer assay.
Series [2] can be described thus: Inhibition of LPS induced TNF-alpha expression in ICR mouse peritoneal macrophage at 10 uM incubated for 30 mins followed by LPS stimulation measured after 24 hrs by ELISA assay relative to control. The class given is functional. The settings on record: […].
Series [3] can be described thus: Inhibition of LPS induced IL-6 expression in ICR mouse peritoneal macrophage at 10 uM incubated for 30 mins followed by LPS stimulation measured after 24 hrs by ELISA assay relative to control. The class given is functional. The settings on record: […].
Series [4] can be described thus: Inhibition of IL-6 expression in LPS stimulated mouse RAW264.7 cells incubated for 1 hr by ELISA assay. The class given is functional, cell-based. The settings on record: RAW264.7, 1 h.
The subject of the next series is RAW264.7. Nature of the series: Inhibition of NO production in LPS stimulated mouse RAW264.7 cells incubated for 1 hr by Griess reagent based assay. In kind it is functional, cell-based. The settings on record: RAW264.7, 1 h.
The nature of series [5]: Inhibition of TNF-alpha expression in LPS stimulated mouse RAW264.7 cells incubated for 1 hr by ELISA assay. In kind it is functional, cell-based. The settings on record: RAW264.7, 1 h.
Series [6] addresses T1, 72 kDa type IV collagenase. The series can be described thus: Inhibition of MMP-2 (unknown origin).
Series [7] addresses Matrix metalloproteinase-9 (Homo sapiens, UniProt P14780). Nature of the series: Inhibition of MMP-9 (unknown origin).
Series [8] in a line: Oral bioavailability in rat at 3 mg/kg. The settings on record: in vivo. The class given is ADME, organism-based.
The nature of series [9]: Half life in rat at 3 mg/kg, po. The settings on record: in vivo. In kind it is ADME, organism-based.

T1 sequence (P08253 whole entry): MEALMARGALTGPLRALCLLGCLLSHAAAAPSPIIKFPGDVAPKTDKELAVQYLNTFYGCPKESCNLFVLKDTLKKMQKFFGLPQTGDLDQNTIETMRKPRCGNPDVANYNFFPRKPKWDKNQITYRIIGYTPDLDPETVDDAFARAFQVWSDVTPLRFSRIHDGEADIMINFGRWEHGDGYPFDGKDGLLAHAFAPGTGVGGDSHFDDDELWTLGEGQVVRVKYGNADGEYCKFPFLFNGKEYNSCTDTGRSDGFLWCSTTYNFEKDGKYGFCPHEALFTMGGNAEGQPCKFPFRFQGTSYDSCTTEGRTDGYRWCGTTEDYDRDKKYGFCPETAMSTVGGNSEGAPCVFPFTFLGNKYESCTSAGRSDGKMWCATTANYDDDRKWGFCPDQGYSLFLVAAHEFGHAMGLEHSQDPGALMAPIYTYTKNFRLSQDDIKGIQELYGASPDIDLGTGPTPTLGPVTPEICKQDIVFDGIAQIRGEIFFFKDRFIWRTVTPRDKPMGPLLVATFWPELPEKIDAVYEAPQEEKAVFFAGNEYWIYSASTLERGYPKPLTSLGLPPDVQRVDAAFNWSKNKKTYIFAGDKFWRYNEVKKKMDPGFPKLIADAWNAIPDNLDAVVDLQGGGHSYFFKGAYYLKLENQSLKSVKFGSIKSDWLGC
Neutrophil collagenase, sequence (P22894 whole entry): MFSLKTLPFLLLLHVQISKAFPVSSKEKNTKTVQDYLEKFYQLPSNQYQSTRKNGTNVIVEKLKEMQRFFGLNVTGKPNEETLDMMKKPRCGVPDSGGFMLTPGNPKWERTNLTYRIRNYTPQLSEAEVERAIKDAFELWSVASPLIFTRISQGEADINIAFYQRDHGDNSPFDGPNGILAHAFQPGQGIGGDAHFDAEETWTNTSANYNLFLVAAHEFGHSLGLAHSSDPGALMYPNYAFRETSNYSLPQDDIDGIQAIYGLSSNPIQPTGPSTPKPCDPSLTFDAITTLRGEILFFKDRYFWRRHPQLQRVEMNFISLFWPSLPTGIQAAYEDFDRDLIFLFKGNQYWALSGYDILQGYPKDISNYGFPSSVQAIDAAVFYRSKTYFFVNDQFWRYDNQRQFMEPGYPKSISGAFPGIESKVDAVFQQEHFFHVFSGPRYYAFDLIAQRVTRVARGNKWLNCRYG
Matrix metalloproteinase-9, sequence (P14780 whole entry): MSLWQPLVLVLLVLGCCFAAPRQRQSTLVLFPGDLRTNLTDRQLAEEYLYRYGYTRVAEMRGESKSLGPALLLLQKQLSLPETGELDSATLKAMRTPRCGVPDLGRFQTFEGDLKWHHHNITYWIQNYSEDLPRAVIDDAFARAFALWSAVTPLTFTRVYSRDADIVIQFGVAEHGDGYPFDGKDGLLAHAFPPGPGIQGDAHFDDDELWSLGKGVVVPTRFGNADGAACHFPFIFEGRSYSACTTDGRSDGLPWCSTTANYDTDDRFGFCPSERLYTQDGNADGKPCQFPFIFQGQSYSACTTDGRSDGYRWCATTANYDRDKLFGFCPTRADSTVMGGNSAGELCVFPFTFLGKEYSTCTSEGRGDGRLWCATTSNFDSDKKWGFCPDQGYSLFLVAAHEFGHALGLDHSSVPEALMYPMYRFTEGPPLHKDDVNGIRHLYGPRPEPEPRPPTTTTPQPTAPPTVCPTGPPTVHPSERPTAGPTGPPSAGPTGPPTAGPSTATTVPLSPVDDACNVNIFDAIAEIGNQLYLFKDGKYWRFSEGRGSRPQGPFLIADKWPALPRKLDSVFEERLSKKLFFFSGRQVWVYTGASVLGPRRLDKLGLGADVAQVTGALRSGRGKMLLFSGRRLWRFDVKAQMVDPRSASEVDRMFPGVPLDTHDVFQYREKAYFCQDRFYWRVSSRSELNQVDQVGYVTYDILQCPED

With `O=C(CCN1CCN(Cc2ccccc2)CC1)Nc1nc(-c2ccccc2)cs1`, the figures for the IC50 (in series [1]; on Neutrophil collagenase) were 10.2 µM and 11.9 µM, respectively.

In the case of `COc1cc(/C=C2\Cc3ccc(O)cc3C2=O)ccc1O`, the inhibition at 10 µM amounted to 83.7% in series [2] and 69.3% in series [3].

`CCCc1nn(C)c2c(NCCCN3CCOCC3)nc(/C=C/c3cc(OC)c(OC)c(OC)c3)nc12`: the half-maximal inhibitory concentration (IC50) was 4.38 µM in [4], 2.64 µM in the series on RAW264.7 and 5.63 µM in series [5].

As for `CCCOc1cccc2c1C(=O)/C(=C/c1ccc(O)c(OC)c1)C2`, the results for the inhibition at 10 µM in series [2] and in series [3] were 72% and 84.9%, respectively.

In the case of `O=C(CN1CCN(c2ccccc2)CC1)Nc1nc(-c2ccc(F)cc2)cs1`, the results for the IC50 (in series [1]; at Neutrophil collagenase) were 4.22 µM and 2.34 µM, respectively.

As for `COc1cc(/C=C2\Cc3cc(OC)c(OC)cc3C2=O)ccc1O`, the inhibition at 10 µM in series [2] was found to be 79.3%; in series [3], 81.4%.

Take `O=C1NC(=O)C(O)(CC(=O)c2ccc(NS(=O)(=O)c3ccc(C(F)(F)F)cc3)cc2)C(=O)N1`: the figures for the half-inhibitory concentration (IC50) in [6] and in [7] were 0.00235 µM and 0.00824 µM, respectively.

In [8], `Cc1coc2c1C(=O)c1c3c-2ccc2c3c(n1Cc1ccccc1)C(=O)CC2(C)C` came in with a bioavailability of 30.2%. This compound also gave a half-life in series [9] of 4.05 h.

`Cc1coc2c1C(=O)C(=O)c1c-2ccc2c1CCCC2(C)C` [TANSHINONE IIA] had a bioavailability in series [8] below 3.5%. For the same compound, the half-life in series [9] is 0.34 h.
